Reference: US20220362386A1, “LIQUID COMPOSITIONS COMPRISING A LEVODOPA AMINO ACID CONJUGATE AND USES THEREOF” (NeuroDerm, Ltd., priority 2019, published 2022)
Structures can show the parent of a compound that is named as a salt. Where two headings read alike, the source gives them in different places. Blank lines part the entries; values can stand above or below the compound they belong to. Non-standard residues stand in square brackets, D forms with d. Residues, ends and D or L forms follow the SMILES beside them. Dopa = N[C@@H](Cc1ccc(O)c(O)c1)C(=O)O

Assays:
[1] = Analytical stability of LD-Tyr/CD formulations by HPLC (Tables 42-45c); settings: for Analytical stability result (HPLC), t = 1 week / Analytical stability result (HPLC), t = 2 weeks: in mg/mL (unit assumed)
Experimental: (§5) It is noted that the recovery % compared the amount of any given material as measured at t=28 h (or any other presented value) compared to the amount of that material, at measured at t=0.

[2] = 0 weeks
Experimental: as §5

[3] = Protein binding, solid phase extraction (SPE) method; assay type: in vitro ADME, human; settings: human, human plasma, 1.0E−05M, SPE sample preparation
Experimental: (§1) A solid phase extraction (SPE) method was used to prepare samples for several compounds in the plasma protein binding assay. The following SPE protocols were followed:
(§2) Sorbent: Waters Oasis MCX 96—well MicroElution Plate—Cat #186001830BA Sample: 200 μL of plasma spiked at 10 μM with test compound. Sample was diluted 1:1 with 4% phosphoric acid in water and mixed for 15 minutes 1) Place Oasis plate on vacuum manifold and set vacuum to 5″ Hg; 2) Condition with 200 μL methanol; 3) Equilibrate with 200 μL water; 4) Load dilute plasma sample; 5) Wash with 200 μL 2% formic acid in water; 6) Wash with 400 μL methanol; and 7) Elute with 100 μL 5% NH4OH in methanol.
as §2, with “MAX 96-well” for “MCX 96—well”, “plate—Cat #186001829” for “Plate—Cat #186001830BA”, “5% NH4OH” for “2% formic acid”, “2% formic acid” for “5% NH4OH”

human plasma = test: as above; assay type: in vitro ADME; settings: 1.0E−05M; SPE sample preparation
Experimental: as §1, §2
as §2, with “MAX 96-well” for “MCX 96—well”, “plate—Cat #186001829” for “Plate—Cat #186001830BA”, “5% NH4OH” for “2% formic acid”, “2% formic acid” for “5% NH4OH”

[4] = Stability observation of the solubility solutions at 25° C. (visual inspection for precipitants); assay type: physicochemical
Experimental: The volume of the solution in the bottle was adjusted to 5 ml, either by adding solvent, or be removing any residual solution, after which the bottle was tightly closed and left at 25° C. for stability observation. […] It is further noted that throughout this document, unless mentioned otherwise, the stability was measured using the manual visual inspection Bosch apparatus MIH DX, at a magnification of ×1.75.

physchem = assay type: physicochemical
Experimental: The volume of the solution in the bottle was adjusted to 5 ml, either by adding solvent, or be removing any residual solution, after which the bottle was tightly closed and left at 25° C. for stability observation. It is noted that throughout Example 4, the concentrations in the tables below were calculated taking into account the amount of solvent added or the solution removed, in which event, the calculations were performed regarding the 5 ml+(amount removed) as the volume of the solution. It is further noted that throughout this document, unless mentioned otherwise, the stability was measured using the manual visual inspection Bosch apparatus MIH DX, at a magnification of ×1.75.
(§3) The LD-Tyr free base, prepared according to Example 2, was added to a solvent, as detailed in Table 7 below, and neutralized by addition of NaOH. When maximum solubility was observed, the solution was filtered and then transferred to a bottle that was previously weighed and flushed with nitrogen. The volume of the solution in the bottle was adjusted to 5 ml, after which the bottle was tightly closed and left at 25° C. for stability observation.
(§4) When maximum solubility was observed, the solution was filtered and then transferred to a bottle that was previously weighed and flushed with nitrogen. The volume of the solution in the bottle was adjusted to 5 ml, after which the bottle was tightly closed and left at 25° C. for stability observation.
as §4, with “stored” for “left”
as §4, with “stored” for “left”
as §3, with “LD-Lys TFA salt,” for “The LD-Tyr free base,”, “1, and which comprises two equivalents of TFA,” for “2,”, “11” for “7”, “stored” for “left”
as §4, with “As detailed above regarding other solutions, with the LD-Tyr free base when” for “When”
as §3, with “LD-Lys HCl salt,” for “The LD-Tyr free base,”, “3,” for “2,”, “13” for “7”, “by the” for “by”

[5] = Human blood stability test; assay type: in vitro ADME; settings: slope of the percentage decrease of remaining compound; substrate 10 μM; 0-60 minutes
Experimental: The stability of several LDAA compounds in human blood was tested. The substrate concentration was 10 μM and the incubation time 0, 5, 15, 30 and 60 minutes.
The results are described in Table 19, wherein the results describe the Ke, i.e., the slope of the percentage decrease of the remaining amount of the compound, measured at each of the above time points, such that the higher the Ke the faster the metabolism.

[6] = Human liver S9 stability test; assay type: in vitro ADME; settings: slope of the percentage decrease of remaining compound; substrate 10 μM; S9 protein 0.2 mg/mL; 0-60 minutes
Experimental: The stability of several LDAA compounds, in their TFA salt form, in human liver S9 was tested using commercially available liver S9. The substrate concentration was 10 μM, the S9 protein concentration was 0.2 mg/mL, and the incubation time 0, 5, 15, 30 and 60 minutes.
The results are described in Table 18, wherein the results describe the Ke, i.e., the slope of the percentage decrease of the remaining amount of the compound, measured at each of the above time points, such that the higher the Ke the faster the metabolism.

[7] = NB 144-4 formulation, Storage temp. 2-8° C.
[8] = NB 144-4 formulation, Storage temp. 25° C.
[9] = NB 144-4 formulation, Storage temp. 40° C.
[10] = NB 144-32 (F1), 37% LD-Tyr/0.5% CD
[11] = NB 144-34 (F2), 44% LD-Tyr/0.5% CD
[12] = NB 144-39 (F3), 30% LD-Tyr/0.5% CD
[13] = 0.75% CD solution, pH 8.5, 240 mg/ml salt

- Analytical stability result (HPLC), t = 0 ([1]; NB 144-4 formulation (30% LD-Tyr/0.75% CD), Storage temp. 2-8° C.): 7.37
- % retention, t = 1 week [1, 7]: 99.9%
- Analytical stability result (HPLC), t = 1 week [1, 7]: 7.36
- % retention, t = 2 weeks [1, 7]: 99.1%
- Analytical stability result (HPLC), t = 2 weeks [1, 7]: 7.30
- % retention, t = 1 week [1, 8]: 99.3%
- Analytical stability result (HPLC), t = 1 week [1, 8]: 7.32
- % retention, t = 2 weeks [1, 8]: 100.5%
- Analytical stability result (HPLC), t = 2 weeks [1, 8]: 7.41
- Analytical stability result (HPLC), t = 0 [1, 9]: 7.37
- % retention, t = 1 week [1, 9]: 98.5%
- Analytical stability result (HPLC), t = 1 week [1, 9]: 7.26
- Concentration (HPLC), t = 0 [1, 10]: 4.78
- Concentration (HPLC), t = 28 h at 32° C. [1, 10]: 4.77
- Concentration (HPLC), t = 0 [1, 11]: 4.84
- Concentration (HPLC), t = 28 h at 32° C. [1, 11]: 4.78
- Concentration (HPLC), t = 0 [1, 12]: 4.86
- Concentration (HPLC), t = 28 h at 32° C. [1, 12]: 4.74
- Analytical stability result (HPLC), t = 0 [2]: 7.37
SMILES: C[C@@](Cc1ccc(O)c(O)c1)(NN)C(=O)O [CD]

- recovery at 10 μM ([3]; read-out: % Recovery 1st): 110%
- recovery at 10 μM ([3]; read-out: % Recovery 2nd): 115%
- recovery at 10 μM ([3]; read-out: % Recovery Mean): 112%
- % Protein Bound 1st (human plasma): 36.6%
- % Protein Bound 2nd (human plasma): 49.4%
- % Protein Bound Mean (human plasma): 43%
SMILES: N[C@@H](Cc1ccc(O)c(O)c1)C(=O)N[C@@H](CCC(=O)O)C(=O)O [LD-Glu TFA salt, Levodopa Glutamic Acid TFA Salt] (H-[Dopa]-Glu-OH)

SMILES: NCCCC[C@H](NC(=O)[C@@H](N)Cc1ccc(O)c(O)c1)C(=O)O [LD-Lys HCl salt] (H-[Dopa]-Lys-OH)
- Stability [4, 13]: Precipitated* (precipitated within 12 hours at room temperature)
- Stability ([4]; WFI, pH 6.51, 350 mg/ml salt): Stable (physically stable for at least 12 hours)
- Appearance (physchem; 0.75% CD solution, pH 6.46, 240 mg/ml salt): Clear
- Appearance (physchem; [13]): Clear
- solubility thermodynamic (physchem; 25 °C, aqueous buffer, thermodynamic from solid, solvent WFI, pH 6.51, HCl counter-ion, read-out: LD-Lys TFA salt concentration): 350 mg/mL
- Appearance (physchem; WFI, pH 6.51, 350 mg/ml salt): Clear
- LD-Lys free base Concentration (physchem; solvent 0.75% CD solution, pH 6.46): 200 mg/mL
- LD-Lys TFA salt concentration (physchem; solvent 0.75% CD solution, pH 6.46, HCl counter-ion): 240 mg/mL
- LD-Lys free base Concentration (physchem; solvent 0.75% CD solution, pH 8.5): 200 mg/mL
- LD-Lys TFA salt concentration (physchem; solvent 0.75% CD solution, pH 8.5, HCl counter-ion): 240 mg/mL
- LD-Lys free base Concentration (physchem; solvent WFI, pH 6.51): 290 mg/mL

- Ke [5]: 0.0149
- Ke [6]: −0.0008
SMILES: NC(=O)[C@@H](N)Cc1ccc(O)c(O)c1 [LDA (levodopa amide), levodopa amide, reference compound]
